Marks after values point to notes of the source that are not given here.
Key:
human neuroma cells D54 = assay: MTT growth inhibition, D54 cells; type: cell-based; settings: Homo sapiens, 72 h after treatment, read-out: Drug concentration (IC50) at which 50% cancer cells survived
From the text: Cell lines and cell culture: human lung cancer cells A549 and H460, human breast cancer cells MCF-7 and MDA-MB-231, human gastric cancer cells BGC-823, human prostate cancer cells PC-3, human chronic leukemia cells K562, human lymphoma cells U937, human liver cancer cells SMMC7721 and HepG2, human colon cancer cells HT29, human pancreatic cancer cells PANC-1 and BxPC3, human cervical cancer Hela cell lines, human brain tumor cells Daoy, human neuroma cells D54 and human oral epidermoid cancer cells KBV200 line with strong drug resistance, mouse melanoma cells B16, and highly metastatic Lewis lung cancer cell lines were purchased from American Type Culture Collection of the U.S. These cells were cultured with DMEM and RPMI-1640 culture solutions separately.
(§1) The procedure was as follows:
(1) 0.25% trypsin was used to digest cancer cells in a logarithmic growth phase to prepare a single-cell suspension, the concentration of cells was adjusted to 5×10^4/mL, and the adjusted suspension was inoculated into a 96-well culture plate with 100 μl per well;
(2) The culture plate was transferred into a 37° C. incubator with a saturated humidity and 5% of CO2 and cultured for 24 h; the compounds and the intermediates thereof obtained in embodiments 1-7 and the compound as represented by formula (IIIa) or the positive control anti-cancer drug with the concentration of 1-1000 μM/L were added to enable the final concentration to be 0.1-1500 μM/L. Control wells (only added with 200 μl of cell suspension) and drug-free blank control wells (containing the solvent of 0.01% DMSO) were set, each group included 8 wells, and the plate was placed into the 37° C. incubator with saturated humidity and 5% of CO2 for culturing;
(§2) (3) The 96-well plate was taken out at 48 h and 72 h after dosing, the original culture medium was carefully removed by suction, 100 μl of serum-free DMEM culture medium and 10 μl of MTT (5 mg/mL) solution were added in each well. The plate was continuously cultured for another 4 h and then the culture was terminated;
(§3) (4) The supernatant in the wells was carefully removed by suction, each well was added with 150 μl of DMSO and shaked at room temperature for 10-15 min to fully dissolve crystals.
(§4) (5) Colorimetric analysis: the wavelength was selected as 570 nm, the light absorbance (A value) of each well was determined on the microplate reader and the results were recorded; the experiment was repeated for three times;
(§5) (6) the experimental results were calculated according to the following formula: relative survival rate=(A value of each experimental group/A value of cell control group)×100%
Calculation of median-effect concentration (IC50, namely the drug concentration at which the inhibition rate is 50%, also known as half inhibitory concentration):
(§6) IC50 of the detected component was calculated by using a regression equation.

[1] = tested on: human lymphoma cells U937; assay: MTT growth inhibition, U937 cells; type: cell-based; settings: Homo sapiens, U-937, 72 h after treatment, read-out: Drug concentration (IC50) at which 50% cancer cells survived
Protocol: as §1, §2, §3, §4, §5, §6

[2] = tested on: human breast cancer cells MDA-MB231 xenograft; assay: In-vivo growth of MDA-MB231 xenografts in nude mice; design: species or system BALB/c nude mice; settings: Mus musculus, MDA-MB-231, ip, MB-231 xenograft, vs DMSO solvent control, read-out: Curative effect (inhibition rate %) of tumor weight; for inhibition in vivo at 60 mg/kg: 60 mg/kg intraperitoneal once a day; for inhibition in vivo at 90 mg/kg: 90 mg/kg intraperitoneal once a day
Protocol: (§7) RPMI1640 and DMEM culture solutions: Hyclone Company; inactivated fetal bovine serum: Hyclone Company, preserved at −20° C.; trypsin: Amersco Company; and 0.4% trypan blue: Sigma Company;
(§8) (3) Observation of growth of tumors in nude mice: the activities (including food intake, traits of urine and stool, mental state and the like) of the nude mice and the tumor growth time and growth situation of the transplanted tumors were observed every day, the body weight and the size of the tumors were measured once every 2-3 days. The long diameter a and the short diameter b (mm) of each tumor were measured by a vernier caliper to calculate the volume, wherein the volume V=π1/2·ab^2 (mm^3);
(§9) (4) sacrifice of animals: the mice were anesthetized and photoed after treatment experiments; the nude mice were sacrificed by breaking neck, the tumor tissues were stripped under sterile conditions and the weight of the tumors was weighed; and the effects of the drugs on pathology and toxicity of the various organs and tissues were detected.

[3] = tested on: human pancreatic cancer cells PANC-1 xenograft; assay: In-vivo growth of PANC-1 xenografts in nude mice; design: species or system BALB/c nude mice; settings: Mus musculus, ip, vs DMSO solvent control, read-out: Curative effect (inhibition rate %) of tumor weight; for inhibition in vivo at 60 mg/kg: 60 mg/kg intraperitoneal once a day; for inhibition in vivo at 90 mg/kg: 90 mg/kg intraperitoneal once a day
Protocol: as §7, §8, §9

p21 = assay: Western Blotting, increase of p21 level; type: cell-based; settings: liver cancer cells, Lewis lung cancer cells and other cancer cell lines and tumor tissue protein lysates, 48 h treatment, read-out: Effective concentration to increase p21 by 50%
From the text: (§10) Antibodies: primary antibodies of VEGFR, EGFR, c-Met, K-Ras, H-Ras, Akt, NF-κB, Cyclin D1, ER-alpha, Dvl-1, Dvl-2, Dvl-3, MMP-9, MMP2, β-catenin, Bcl-2, Bax, p53, p21, E-cadherin and Caspase3 protein, purchased from American Cell Signaling Technology Company and Santa Cruz Technology Company; and H3 acetylation, H4 acetylation and HDAC (HDAC3, HDAC4 and the like) Antibody Sample Kits, purchased from Cell Signaling Technology Company of the U.S.
(§11) (3) polyacrylamide gel electrophoresis (SDS-PAGE): an equal amount of protein lysate sample was used to separate protein, film transfer, and blocking, treated with appropriate primary antibodies and secondary antibodies in sequence, and the film was washed, then the color was developed with ECL kit, and a blot protein band was detected by exposure of an X-ray film; and a Gel-Pro Analyzer was used for quantitative analysis of gray degree, optical density value of the control group and the drug treatment group in various concentration were respectively compared with that of internal reference, the obtained ratios were respectively compared with the control group, and the protein expression level was semi-quantified.

HDAC3 [4] = assay: Western Blotting, HDAC3 level; type: cell-based; settings: human liver cancer cells, Lewis lung cancer cells and other cancer cell lines and tumor tissues, read-out: Effective concentration (IC50) for inhibition of HDAC3
From the text: as §10, §11

Dvl-1 = assay: Western Blotting, Dvl-1 level; type: cell-based; settings: human liver cancer cells, Lewis lung cancer cells and other cancer cell lines and tumor tissues, read-out: Effective concentration (IC50) for inhibition of Dvl-1
From the text: as §10, §11

HDAC3 [5] = assay: HDAC3 enzyme activity in nuclear extracts of human tumor xenografts of treated mice; settings: first value of the pair HDAC3 and HDAC4, SAHA 25 mg/kg
Protocol: For the detection of the effect of the drugs on enzyme activity of EZH2 and HDAC of in-vivo tumors, the tumors were separately excised after 6 h of medication, total proteins and nucleoproteins were extracted separately to detect and analyze the activity of the enzyme.
(2) 50 μl of diluted sample solution was added into each reaction well, the plate was sealed with a plate-sealing film and reacted at room temperature for 30 min;
(3) the plate-sealing film was carefully peeled off, the liquid was removed, dried, 150 μl of washing liquid was added into each well, stood for 30 s, then the liquid was removed, repeated twice, and dried;
(4) 2 μl of HDAC enzyme or tumor tissue nuclear extracts was respectively uniformly mixed with 28 μl of diluted sample solution, added into the wells, the plate was sealed with the plate-sealing film and reacted at 37° C. for 60 min;
(5) the plate was washed for three times, wherein the operation was the same as that in (3); and a diluted antibody capture working solution was added into each reaction well according to 50 μl/well and reacted on a shaking bed at room temperature for 60 min;
(6) the plate was washed for four times, wherein the operation was the same as that in (3);
(7) a diluted antibody detection working solution was added into each reaction well according to 50 μl/well and reacted at room temperature for 30 min;
(8) the plate was washed for five times, wherein the operation was the same as that in (3);
a color developing agent was added according to 100 μl/well, and performed dark development for 2-10 min;
(9) 50 μl of stop solution was added into each well for stopping the reaction when the color in the well with a standard product turned blue with medium intensity, the color immediately turned yellow from blue after the addition;
(10) the light absorbance (OD value) of each well was measured in sequence at the wavelength of 450 nm; wherein the measurement should be performed within 15 min after addition of the stop solution; and

NF-κB = assay: Western Blotting, NF-κB level; type: cell-based; settings: human liver cancer cells, Lewis lung cancer cells and other cancer cell lines and tumor tissues, read-out: Effective concentration (IC50) for inhibition of NF-κB
From the text: as §10, §11

Cyclin D1 = assay: Western Blotting, Cyclin D1 level; type: cell-based; settings: human liver cancer cells, Lewis lung cancer cells and other cancer cell lines and tumor tissues, read-out: Effective concentration (IC50) for inhibition of Cyclin D1
From the text: as §10, §11

Compound	IC50 (human neuroma cells D54) [µM]	IC50 [1] [µM]	inhibition in vivo at 60 mg/kg [2] [%]	inhibition in vivo at 90 mg/kg [2] [%]	inhibition in vivo at 60 mg/kg [3] [%]	inhibition in vivo at 90 mg/kg [3] [%]	EC50 (p21) [µM]	IC50 (HDAC3 [4]) [µM]	IC50 (Dvl-1) [µM]	decrease of HDAC3 enzyme activity/inhibition rate (HDAC3 [5]; A549 tumor grown in vivo) [%* and]	decrease of HDAC3 enzyme activity/inhibition rate (HDAC3 [5]; MCF7 tumor grown in vivo) [%* and]	decrease of HDAC3 enzyme activity/inhibition rate (HDAC3 [5]; MDA-MB231 tumor grown in vivo) [%* and]	decrease of HDAC3 enzyme activity/inhibition rate (HDAC3 [5]; SMMC7721 tumor grown in vivo) [%* and]	IC50 (NF-κB) [µM]	IC50 (Cyclin D1) [µM]
CCNC(=O)CC[C@@H](NC(=O)c1cc2cc(Br)ccc2oc1=O)C(=O)OCC [Compound Id, (R)-2-(6-Br-2-oxo-2H-benzopyran-3-carboxamido)-5-ethylamino-5-oxo-pentanoic acid ethyl ester]	92	124	53.1	66.7	54.2	64.8	< 100	< 65	< 250	71	60	63	65	< 80	< 100
CCNC(=O)CC[C@H](N)C(=O)OC [Compound IIa, theanine methyl ester]	400	350	31.1	36.1	33.4	37.7	–	–	–	–	–	–	–	–	–
CCNC(=O)CC[C@@H](NC(=O)c1cc2cc(Cl)ccc2oc1=O)C(=O)OCC [Compound Ic, (R)-2-(6-CI-2-oxo-2H-benzopyran-3-carboxamido)-5-ethylamino-5-oxo-pentanoic acid ethyl ester]	98	52	54.1	65.5	56.5	66.7	< 100	< 65	< 250	71	60	63	65	< 100	< 100
CCNC(=O)CC[C@@H](NC(=O)c1cc2cc(Cl)cc(Cl)c2oc1=O)C(=O)OCC [Compound Ig, (R)-2-(6,8-dichloro-2-oxo-2H-benzopyran-3-carboxamido)-5-ethylamino-5-oxo-pentanoic ethyl ester]	79	38	59.1	72.1	55.6	68.9	< 70	< 65	< 125	61	66	64	62	< 100	< 70
CCNC(=O)CCC(NC(=O)c1cc2cc([N+](=O)[O-])ccc2oc1=O)C(=O)OCC (stereo in doubt) [Compound If, (R)-2-(6-nitro-2-oxo-2H-benzopyran-3-carboxamido)-5-ethylamino-5-oxo-pentanoic acid ethyl ester]	105	121	52.6	62.3	53.6	67.3	< 65	< 55	< 200	73	67	65	66	< 60	< 90
CCNC(=O)CCC(NC(=O)c1cc2ccccc2oc1=O)C(=O)OCC (stereo not shown) [Compound Ib, ethyl 5-ethylamino-5-oxo-2-(2-oxo-2H-benzopyran-3-carboxamido)pentanoate]	165	90	59.1	69.1	54.6	65.9	< 120	< 70	< 300	65	–	–	63	< 120	< 120
CCNC(=O)CCC(NC(=O)c1cc2cc(F)ccc2oc1=O)C(=O)OCC (stereo in doubt) [Compound Ie, (R)-2-(6-F-2-oxo-2H-benzopyran-3-carboxamido)-5-ethylamino-5-oxo-pentanoic acid ethyl ester]	150	126	50.9	60.9	56.6	64.6	< 100	< 55	< 150	70	65	60	63	< 60	< 160
CCNC(=O)CC[C@H](N)C(=O)OCC [Compound IIb, theanine ethyl ester]	300	400	44.5	47.8	32.3	34.8	–	–	–	–	–	–	–	–	–

Reference: patent US9518038B2, “Condensation product of theanine derivative and carboxylic acid coumarin derivative, its intermediate, preparation method and use thereof” (SHANDONG YINGDONG YINGHAO BIOTECHNOLOGY, INC., priority 2012, dated 2016)
